Numbered stars: 1 amine (or outer) side, 2 acyl side, 3 side chain; on linkers, the order of the positions; unused ones are H or OH. Square brackets hold non-standard residues; d marks the D form. Side chains are listed from the residue outwards. Peptide text beside a SMILES is read from it. * marks the point of attachment. C20 diacid = O=C(O)CCCCCCCCCCCCCCCCCCC(=O)*; γGlu = O=C(O)[C@H](CCC(=O)[*:2])N[*:1]; αMeF = C[C@](N)(Cc1ccccc1)C(=O)O; αMeL = CC(C)C[C@](C)(N)C(=O)O; AEEA = NCCOCCOCC(=O)O; Aib = CC(C)(N)C(=O)O
Assays:
[1] = biological target: T1, gastric inhibitory peptide receptor (GIPR) (Homo sapiens, UniProt P48546); assay: cAMP pharmacological functional assay in presence of casein, hGIPR; type: cell-based; settings: HEK293 cells expressing hGIPR, 0.1% Casein, geometric mean; read-out: hGIPR cAMP Rel EC50 nM (SEM, n)
T1 sequence (P48546 22-466): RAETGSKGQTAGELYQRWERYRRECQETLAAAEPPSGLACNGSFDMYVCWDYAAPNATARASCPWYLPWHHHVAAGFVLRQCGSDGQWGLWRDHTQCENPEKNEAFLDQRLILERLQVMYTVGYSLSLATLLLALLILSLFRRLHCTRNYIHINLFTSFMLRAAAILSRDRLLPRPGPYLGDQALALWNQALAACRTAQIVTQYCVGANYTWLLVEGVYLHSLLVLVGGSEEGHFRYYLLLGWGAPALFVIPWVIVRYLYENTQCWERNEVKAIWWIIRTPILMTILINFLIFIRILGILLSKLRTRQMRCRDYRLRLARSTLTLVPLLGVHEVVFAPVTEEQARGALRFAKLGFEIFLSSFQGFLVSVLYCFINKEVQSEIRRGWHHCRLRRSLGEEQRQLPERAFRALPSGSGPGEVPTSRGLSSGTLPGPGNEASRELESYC

[2] = biological target: T2, human Gcg receptor (Homo sapiens, UniProt P47871); assay: [125I]-Glucagon binding (SPA), human Gcg receptor; settings: read-out: hGLcgR Ki, nM (SEM, n)
T2 construct: expressed in transfected cells; crude membranes
T2 sequence (P47871 26-477): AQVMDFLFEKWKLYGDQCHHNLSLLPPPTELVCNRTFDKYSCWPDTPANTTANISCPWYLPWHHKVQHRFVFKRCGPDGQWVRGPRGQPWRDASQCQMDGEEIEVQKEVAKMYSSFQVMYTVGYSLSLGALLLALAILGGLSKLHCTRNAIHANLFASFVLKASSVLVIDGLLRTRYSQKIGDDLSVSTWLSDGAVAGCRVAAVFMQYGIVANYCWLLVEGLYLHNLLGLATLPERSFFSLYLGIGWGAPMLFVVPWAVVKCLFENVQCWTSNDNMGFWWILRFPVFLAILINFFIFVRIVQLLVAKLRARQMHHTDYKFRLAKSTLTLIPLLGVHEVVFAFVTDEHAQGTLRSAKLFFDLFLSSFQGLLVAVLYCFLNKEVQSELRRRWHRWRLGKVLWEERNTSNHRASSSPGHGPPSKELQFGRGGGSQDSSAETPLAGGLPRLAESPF
How it was run: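 Crude membranes from cells expressing the receptor, prepared by hypotonic lysis in 50 mM Tris HCl pH 7.5 with protease inhibitors, homogenization and differential centrifugation, were used in a WGA-bead SPA. Binding buffer: 25 mM HEPES pH 7.4, 2.5 mM CaCl2, 1 mM MgCl2, bacitracin, Tween-20.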

[3] = biological target: human GLP-1R (Homo sapiens, UniProt P43220); assay: [125I]-GLP-1 binding (SPA), human GLP-1 receptor; set-up: expressed in transfected cells; crude membranes; settings: read-out: hGLP1R Ki, (nM) (SEM, n)
Chain of human GLP-1R (P43220 24-463): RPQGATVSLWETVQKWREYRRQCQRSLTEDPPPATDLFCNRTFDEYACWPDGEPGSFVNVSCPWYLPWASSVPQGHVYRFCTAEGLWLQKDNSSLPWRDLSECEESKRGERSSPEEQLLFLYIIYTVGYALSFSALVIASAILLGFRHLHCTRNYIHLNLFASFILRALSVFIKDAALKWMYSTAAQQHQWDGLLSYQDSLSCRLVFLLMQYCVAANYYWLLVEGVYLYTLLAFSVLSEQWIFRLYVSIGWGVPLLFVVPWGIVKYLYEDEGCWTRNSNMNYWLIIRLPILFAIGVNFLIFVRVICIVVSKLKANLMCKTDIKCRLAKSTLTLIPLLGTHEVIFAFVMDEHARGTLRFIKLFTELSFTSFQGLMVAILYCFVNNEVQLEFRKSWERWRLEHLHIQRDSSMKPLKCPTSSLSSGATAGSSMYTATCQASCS
How it was run: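 Frozen cell pellets are lysed on ice in hypotonic Tris buffer, pH 7.5, homogenized, and centrifuged to a membrane pellet resuspended at about 1 to 3 mg/mL. Binding is then measured in HEPES-based buffer at pH 7.4, and curves are fitted to give IC50 and Ki.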

[4] = biological target: T3, human GIP receptor (Homo sapiens, UniProt P48546); assay: [125I]-GIP binding (SPA), human GIP receptor; settings: read-out: hGIPR Ki, nM (SEM, n)
T3 construct: expressed in transfected cells; crude membranes
T3 sequence (P48546 22-466): T1 sequence (P48546 22-466)

[5] = biological target: human GLP-1 receptor (GLP-1R) (Homo sapiens, UniProt P43220); assay: cAMP pharmacological functional assay in presence of casein, hGLP-1R; type: cell-based; settings: HEK293 cells expressing hGLP-1R, 0.1% Casein, geometric mean; read-out: hGLP1R cAMP Rel EC50 nM (SEM, n)
Chain of human GLP-1 receptor (GLP-1R) (P43220 24-463): as above

| Compound | EC50 [1] [nM] | Ki [2] [nM] | Ki [3] [nM] | Ki [4] [nM] | EC50 [5] [nM] |
| --- | --- | --- | --- | --- | --- |
| CC[C@H](C)[C@H](NC(=O)[C@H](Cc1ccccc1)NC(=O)[C@H](C)NC(=O)C(C)(C)NC(=O)[C@H](CCC(N)=O)NC(=O)[C@H](C)NC(=O)[C@H](CCCCNC(=O)COCCOCCNC(=O)COCCOCCNC(=O)CC[C@H](NC(=O)CCCCCCCCCCCCCCCCCCC(=O)O)C(=O)O)NC(=O)[C@H](CCCCN)NC(=O)[C@H](CC(=O)O)NC(=O)[C@H](CC(C)C)NC(=O)[C@H](CC(C)C)NC(=O)[C@@H](NC(=O)[C@H](CO)NC(=O)[C@H](Cc1ccc(O)cc1)NC(=O)[C@H](CC(=O)O)NC(=O)[C@H](CO)NC(=O)[C@@H](NC(=O)[C@H](Cc1ccccc1)NC(=O)[C@@H](NC(=O)CNC(=O)[C@H](CCC(=O)O)NC(=O)C(C)(C)NC(=O)[C@@H](N)Cc1c[nH]cn1)[C@@H](C)O)[C@@H](C)O)[C@@H](C)CC)C(=O)N[C@@H](CCC(=O)O)C(=O)N[C@@H](Cc1ccc(O)cc1)C(=O)N[C@@H](CC(C)C)C(=O)N[C@H](C(=O)N[C@@H](CCC(=O)O)C(=O)NC(C)(C)C(=O)NCC(=O)N1CCC[C@H]1C(=O)N[C@@H](CO)C(=O)N[C@@H](CO)C(=O)NCC(=O)N[C@@H](C)C(=O)N1CCC[C@H]1C(=O)N1CCC[C@H]1C(=O)N1CCC[C@H]1C(=O)N[C@@H](CO)C(N)=O)[C@@H](C)CC [Example 16] (H-H[Aib]EGTFTSDYSILLDKK([AEEA-AEEA-γGlu-C20 diacid])AQ[Aib]AFIEYLIE[Aib]GPSSGAPPPS-NH2) | 0.975 | 371 | 2.78 | 0.0841 | 0.0437 |
| CC[C@H](C)[C@H](NC(=O)[C@H](CCCCN)NC(=O)[C@H](CC(=O)O)NC(=O)[C@H](CC(C)C)NC(=O)[C@H](CC(C)C)NC(=O)[C@@H](NC(=O)[C@H](CO)NC(=O)[C@H](Cc1ccc(O)cc1)NC(=O)[C@H](CC(=O)O)NC(=O)[C@H](CO)NC(=O)[C@@H](NC(=O)[C@H](Cc1ccccc1)NC(=O)[C@@H](NC(=O)CNC(=O)[C@H](CCC(=O)O)NC(=O)C(C)(C)NC(=O)[C@@H](N)Cc1ccc(O)cc1)[C@@H](C)O)[C@@H](C)O)[C@@H](C)CC)C(=O)N[C@@H](C)C(=O)N[C@@H](CCC(N)=O)C(=O)NC(C)(C)C(=O)N[C@@H](C)C(=O)N[C@@H](Cc1ccccc1)C(=O)N[C@H](C(=O)N[C@@H](CCC(=O)O)C(=O)N[C@@H](Cc1ccc(O)cc1)C(=O)N[C@@H](CC(C)C)C(=O)N[C@H](C(=O)N[C@@H](CCC(=O)O)C(=O)NCC(=O)NCC(=O)N1CCC[C@H]1C(=O)N[C@@H](CO)C(=O)N[C@@H](CCCCNC(=O)COCCOCCNC(=O)COCCOCCNC(=O)CC[C@H](NC(=O)CCCCCCCCCCCCCCCCCCC(=O)O)C(=O)O)C(=O)NCC(=O)N[C@@H](C)C(=O)N1CCC[C@H]1C(=O)N1CCC[C@H]1C(=O)N1CCC[C@H]1C(=O)N[C@@H](CO)C(N)=O)[C@@H](C)CC)[C@@H](C)CC [Example 42] (H-Y[Aib]EGTFTSDYSILLDKIAQ[Aib]AFIEYLIEGGPSK([AEEA-AEEA-γGlu-C20 diacid])GAPPPS-NH2) | 0.161 | 160 | 13.2 | 0.0514 | 1.45 |
| CC[C@H](C)[C@H](NC(=O)[C@H](CC(C)C)NC(=O)[C@H](Cc1ccc(O)cc1)NC(=O)[C@H](CCC(=O)O)NC(=O)[C@@H](NC(=O)[C@H](Cc1ccccc1)NC(=O)[C@H](C)NC(=O)C(C)(C)NC(=O)[C@H](CCC(N)=O)NC(=O)[C@H](C)NC(=O)[C@H](CCCCNC(=O)COCCOCCNC(=O)COCCOCCNC(=O)CC[C@H](NC(=O)CCCCCCCCCCCCCCCCCCC(=O)O)C(=O)O)NC(=O)C(C)(C)NC(=O)[C@H](CC(=O)O)NC(=O)[C@H](CC(C)C)NC(=O)[C@](C)(CC(C)C)NC(=O)[C@@H](NC(=O)[C@H](CO)NC(=O)[C@H](Cc1ccc(O)cc1)NC(=O)[C@H](CC(=O)O)NC(=O)[C@H](CO)NC(=O)[C@@H](NC(=O)[C@H](Cc1ccccc1)NC(=O)[C@@H](NC(=O)CNC(=O)[C@H](CCC(=O)O)NC(=O)C(C)(C)NC(=O)[C@@H](N)Cc1ccc(O)cc1)[C@@H](C)O)[C@@H](C)O)[C@@H](C)CC)[C@@H](C)CC)C(=O)N[C@@H](CCC(=O)O)C(=O)NCC(=O)NCC(=O)N1CCC[C@H]1C(=O)N[C@@H](CO)C(=O)N[C@@H](CO)C(=O)NCC(=O)N[C@@H](C)C(=O)N1CCC[C@H]1C(=O)N1CCC[C@H]1C(=O)N1CCC[C@H]1C(=O)N[C@@H](CO)C(N)=O [Example 60] (H-Y[Aib]EGTFTSDYSI[αMeL]LD[Aib]K([AEEA-AEEA-γGlu-C20 diacid])AQ[Aib]AFIEYLIEGGPSSGAPPPS-NH2) | 0.135 | 237 | 9.55 | 0.0655 | 0.287 |
| CC[C@H](C)[C@H](NC(=O)[C@H](CC(C)C)NC(=O)[C@H](Cc1ccc(O)cc1)NC(=O)[C@H](CCC(=O)O)NC(=O)[C@@H](NC(=O)[C@H](Cc1ccccc1)NC(=O)[C@H](CO)NC(=O)C(C)(C)NC(=O)[C@H](CCC(N)=O)NC(=O)[C@H](C)NC(=O)[C@H](CCCCNC(=O)COCCOCCNC(=O)COCCOCCNC(=O)CC[C@H](NC(=O)CCCCCCCCCCCCCCCCCCC(=O)O)C(=O)O)NC(=O)[C@H](CCCCN)NC(=O)[C@H](CC(=O)O)NC(=O)[C@H](CC(C)C)NC(=O)[C@](C)(CC(C)C)NC(=O)[C@@H](NC(=O)[C@H](CO)NC(=O)[C@H](Cc1ccc(O)cc1)NC(=O)[C@H](CC(=O)O)NC(=O)[C@H](CO)NC(=O)[C@@H](NC(=O)[C@](C)(Cc1ccccc1)NC(=O)[C@@H](NC(=O)CNC(=O)[C@H](CCC(=O)O)NC(=O)C(C)(C)NC(=O)[C@@H](N)Cc1ccc(O)cc1)[C@@H](C)O)[C@@H](C)O)[C@@H](C)CC)[C@@H](C)CC)C(=O)N[C@@H](CCC(=O)O)C(=O)NCC(=O)NCC(=O)N1CCC[C@H]1C(=O)N[C@@H](CO)C(=O)N[C@@H](CO)C(=O)NCC(=O)N[C@@H](C)C(=O)N1CCC[C@H]1C(=O)N1CCC[C@H]1C(=O)N1CCC[C@H]1C(=O)N[C@@H](CO)C(N)=O [Example 138] (H-Y[Aib]EGT[αMeF]TSDYSI[αMeL]LDKK([AEEA-AEEA-γGlu-C20 diacid])AQ[Aib]SFIEYLIEGGPSSGAPPPS-NH2; N-terminus assumed) | 0.0581 | 61.2 | 0.926 | 0.0295 | 0.0471 |
| CC[C@H](C)[C@H](NC(=O)[C@H](CC(C)C)NC(=O)[C@H](Cc1ccc(O)cc1)NC(=O)[C@H](CCC(=O)O)NC(=O)[C@@H](NC(=O)[C@H](Cc1ccccc1)NC(=O)[C@H](Cc1c[nH]cn1)NC(=O)C(C)(C)NC(=O)[C@H](CCC(N)=O)NC(=O)[C@H](C)NC(=O)[C@H](CCCCNC(=O)COCCOCCNC(=O)COCCOCCNC(=O)CC[C@H](NC(=O)CCCCCCCCCCCCCCCCCCC(=O)O)C(=O)O)NC(=O)[C@H](CCCCN)NC(=O)[C@H](CC(=O)O)NC(=O)[C@H](CC(C)C)NC(=O)[C@](C)(CC(C)C)NC(=O)[C@@H](NC(=O)[C@H](CO)NC(=O)[C@H](Cc1ccc(O)cc1)NC(=O)[C@H](CC(=O)O)NC(=O)[C@H](CO)NC(=O)[C@@H](NC(=O)[C@](C)(Cc1ccccc1)NC(=O)[C@@H](NC(=O)CNC(=O)[C@H](CCC(=O)O)NC(=O)C(C)(C)NC(=O)[C@@H](N)Cc1ccc(O)cc1)[C@@H](C)O)[C@@H](C)O)[C@@H](C)CC)[C@@H](C)CC)C(=O)N[C@@H](CCC(=O)O)C(=O)NCC(=O)NCC(=O)N1CCC[C@H]1C(=O)N[C@@H](CO)C(=O)N[C@@H](CO)C(=O)NCC(=O)N[C@@H](C)C(=O)N1CCC[C@H]1C(=O)N1CCC[C@H]1C(=O)N1CCC[C@H]1C(=O)N[C@@H](CO)C(N)=O [Example 142] (H-Y[Aib]EGT[αMeF]TSDYSI[αMeL]LDKK([AEEA-AEEA-γGlu-C20 diacid])AQ[Aib]HFIEYLIEGGPSSGAPPPS-NH2; N-terminus assumed) | 0.0489 | 53.1 | 1.06 | 0.0275 | 0.0426 |
